In US20230013227A1, “ARYL-ANILINE AND HETEROARYL-ANILINE COMPOUNDS FOR TREATMENT OF BIRTHMARKS” (NFlection Therapeutics, Inc., priority 2018, published 2023):
Like-named read-outs stand apart in the source and are kept apart here.

Legend:
A375 cells = test: Cell-Based Assay-2 (Example 5): Cell Titer-Glo viability, A375 (BRAF) GI50; details: Homo sapiens, A-375; Table 8, compounds of formula (II); 72 hours
Method: (§1) Alternatively, the following procedure can be used to measure cell-based activity. Test compounds were dissolved in DMSO in 10 mM stock. Cell Titer-Glo® 2.0 Luminescent cell viability assay reagent was purchased from Promega (Madison, Wis.). A375 and HCT116 cell lines were purchased from American Type Culture Collection (Manassas, Va.). For A375 cells, cell culture media was DMEM+10% FBS. For HCT116 cells, cell culture media was McCoy's 5A+10% FBS. All media were supplemented with 100 μg/mL of penicillin, and 100 μg/mL of streptomycin. Cultures were maintained at 37° C. in a humidified atmosphere of 5% CO2 and 95% air.
(§2) Test compounds were diluted in DMSO solution with 10-dose and 3-fold dilutions in a source plate starting at 10 mM. […] Luminescence was recorded by Envision 2104 Multilabel Reader (PerkinElmer, Santa Clara, Calif.). The number of viable cells in culture was determined based on quantitation of the ATP present in each culture well. […] Luminescence was recorded by Envision 2104 Multilabel Reader (PerkinElmer, Santa Clara, Calif.). The number of viable cells in culture was determined based on quantitation of the ATP present in each culture well. […] All parameters in the equation were calculated by GraphPad Prism 4 program. […] Accordingly, GI50 is the value of 10^X, where X was calculated by the Curve Fitting Equation when Y=50 using Excel.

MEK1 = molecular target: T1, MEK1 (Homo sapiens, UniProt Q02750); test: MEK Inhibition Assay-1 (Example 2): 33P-ATP, P81 filter-binding kinase assay; details: read-out: Assay 1: biochemical MEK IC50
T1 construct: N-terminal His-tagged recombinant human full length protein; purchased Invitrogen PV3303; host or cells: insect cells
T1 sequence (Q02750 whole entry): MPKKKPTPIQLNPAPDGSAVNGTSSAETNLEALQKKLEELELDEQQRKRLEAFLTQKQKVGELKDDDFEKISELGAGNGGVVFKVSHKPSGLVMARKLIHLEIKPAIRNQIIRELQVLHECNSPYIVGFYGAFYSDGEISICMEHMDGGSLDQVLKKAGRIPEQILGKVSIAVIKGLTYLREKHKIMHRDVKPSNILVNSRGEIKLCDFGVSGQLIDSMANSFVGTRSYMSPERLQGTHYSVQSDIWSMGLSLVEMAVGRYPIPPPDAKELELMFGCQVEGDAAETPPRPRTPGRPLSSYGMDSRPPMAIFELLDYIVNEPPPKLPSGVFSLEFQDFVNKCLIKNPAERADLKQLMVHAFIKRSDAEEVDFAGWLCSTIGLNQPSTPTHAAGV
Method: The following procedure can be used to measure biochemical activity. MEK1 inhibitory activity of compounds were tested using the following procedure. […] Nat Biotechnoi 2011, 29(11), 1039-45.
• Reaction buffer: 20 mM Hepes (pH 7.5), 10 mM MgCl2, 1 mM EGTA, 0.02% Brij35, 0.02 mg/mL BSA, 0.1 mM Na3VO4, 2 mM DTT, 1% DMSO • Enzyme: MEK1, Invitrogen cat #PV3303 • N-terminal His-tagged recombinant human full length protein, expressed in insect cells. Activated in vitro by RAF1. MW=49.2 kDa, GenBank Accession No. NP_002746. • Substrate: 5 μM ERK2 (K52R), • Kinase-dead mutant, (GenBank Accession No. NM_0011949), aa2-358 with N-terminal His6 tag, MW=43.63 kDa, expressed in E. coli.
The substrate was prepared in freshly prepared Reaction Buffer. The kinase was delivered into the substrate solution and gently mixed. Test compounds were delivered in 100% DMSO into the kinase reaction mixture by Acoustic technology (Echo550; nanoliter range), and incubated for 20 min at room temperature. ^33P-ATP was delivered into the reaction mixture to initiate the reaction. The reaction mixture was incubated for 2 hours at room temperature. Kinase activity was detected by P81 filter-binding method.

HCT116 cells = test: Cell-Based Assay-2 (Example 5): Cell Titer-Glo viability, HCT116 (Kras) GI50; details: Homo sapiens, HCT-116; Table 8, compounds of formula (II); 72 hours; read-out: Assay 3: HCT116 (Kras) GI50
Method: as §1, §2

p-ERK = test: Human birthmark explant protocol (Example 1): p-ERK in nevus sebaceous explants; assay type: cell-based; details: topical gel
Text: Study Objectives: The primary objective was to assess the efficacy of a topically-formulated compound described herein in suppressing p-ERK, a downstream biomarker of RAS/MAPK signaling in epidermal nevus and nevus sebaceous. The secondary objectives was to assess permeability (where the compound was applied topically) in birthmark explants treated with a compound described herein.
Sample Collection and Eligibility: Discarded human birthmark (epidermal nevus and nevus sebaceous) samples were obtained from the Stanford Surgery Clinic, using an approved human subjects protocol (Stanford IRB #18325). Specimens were identified under the direction of the Principal Investigator and placed in cell proliferation media (DMEM/F12 containing penicillin/streptomycin (0.1%); fungizone (40 μg/mL); B27 (without vitamin A).
Samples were primary, untreated birthmarks of at least 6 mm in size; samples were excised by a shave, punch biopsy or elliptical excision. Specimens were identified under the direction of the Principal Investigator. Specimens were chopped into 2 mm fragments and placed in 24-well plates containing cell proliferation media (DMEM/F12 containing penicillin/streptomycin (0.1%); fungizone (40 μg/mL); B27 (without vitamin A) and submerged in media with drug. For topical gel application, samples were placed in 96 well plates with epidermal surface exposed to air.
For the data provided in FIGS. 3 and 4, a gel topical gel formulation of Trametinib, Compound No. 2.003, Compound No. 4.029, or the gel topical formulation of vehicle only were topically applied to the surface of a birthmark explant at 4 hours for analysis. The gel formulation was 1% hydroxypropyl cellulose in DMSO/PEG 400 1:1 (v/v) and the tested compound was 1% by weight in the gel formulation. Samples were harvested at 4 hours for analysis. Harvested tissue was bisected and with half snap frozen and half fixed in 10% formalin and paraffin embedded for further analysis.
For the data provided in FIG. 5, a gelled topical gel formulation of Compound 2.003 or the gel topical formulation of vehicle only were topically applied to the surface of a birthmark explant at 4 hours for analysis. The gel formulation was 1.5% hydroxypropyl cellulose in the base formulation and the tested compound was 0.01% by weight of the base formulation. The Compositions of the base formulation are listed below. Samples were harvested at 4 hours for analysis. Harvested tissue was bisected and with half snap frozen and half fixed in 10% formalin and paraffin embedded for further analysis.
For the data provided in FIG. 6, three gelled topical gel formulations of Compound 2.003 at different concentrations or the gel topical formulation of vehicle only were topically applied to the surface of a birthmark explant at 4 hours for analysis. […]

MAP2K1 (MEK1) = molecular target: T2, MAP2K1 (MEK1) (Homo sapiens, UniProt Q02750); test: MEK Inhibition Assay-2 (Example 3): Z'-LYTE biochemical assay; details: Table 6; procedure of Example 3; read-out: IC50 against MEK1
T2 construct: purchased ThermoFisher
T2 sequence (Q02750 whole entry): as above
Method: MEK1 inhibitory activity of compounds were tested using the following procedure (protocol available at thermofisher.com/content/dam/LifeTech/migration/files/drug-discovery/pdfs.par.60256.file.dat/20130430%20ssbk%20customer%20protocol%20and%20assay%20conditions.pdf). The Z′-LYTE biochemical assay (ThermoFisher) employs a fluorescence-based, coupled-enzyme format and is based on the differential sensitivity of phosphorylated and non-phosphorylated peptides to proteolytic cleavage.
Test compounds in 100% DMSO were screened in 1% DMSO (final) in the well. For 10 point titrations, 3-fold serial dilutions are conducted from the starting concentration of 30 μM.
After the 1 hour incubation, 5 μL of a 1:1024 dilution of Development Reagent A (available from Invitrogen, catalog no. PV3295) was added.
ATP solutions were diluted to a 4× working concentration in Kinase Buffer (50 mM HEPES pH 7.5, 0.01% BRIJ-35, 10 mM MgCl2, 1 mM EGTA). ATP Km apparent was previously determined using a Z′-LYTE assay. The Development Reagent was diluted in Development Buffer (available from Invitrogen, catalog no. P3127).
Assay Protocol: 2.5 μL of 4× test compound or 100 nL of 100× Test Compound plus 2.4 μL Kinase Buffer, 5 μL of the 2× Peptide/Kinase Mixture, 2.5 μL of 4×ATP Solution were added to the plates and placed on a shake plate for 30-seconds. The kinase reaction was allowed to proceed for 60-minute at room temperature, before 5 μL of Development Reagent Solution was added, and the mixture agitated for 30-seconds on a shake plate. The mixture was incubated for 60-minute at room temperature. Fluorescence was measured using a plate reader and the data were analyzed.
This control yielded 100% cleaved peptide in the Development Reaction. The 100% Phosphorylation Control, which consisted of a synthetically phosphorylated peptide of the same sequence as the peptide substrate, was designed to allow for the calculation of percent phosphorylation. This control yielded a very low percentage of cleaved peptide in the Development Reaction. The 0% Phosphorylation and 100% Phosphorylation Controls allow for the calculation of the percent phosphorylation achieved in a specific reaction well.
The minimum emission ratio in a screen was established by the 0% Inhibition Control, which contained active kinase. This control was designed to produce a 10-50% phosphorylated peptide in the Kinase Reaction. Cascade assays may produce up to 70% phosphorylated peptide.
A known inhibitor control standard curve, 10 point titration, was run for each individual kinase on the same plate as the kinase to ensure the kinase was inhibited within an expected IC50 range previously determined.
The following controls are prepared for each concentration of Test Compound assayed. […] The expected value for a non-interfering compound should be 100%. Any value outside of 90% to 110% was flagged. […] The expected value for a non-fluorescence compound should be 0%. Any value >20% was flagged.
The data in Table A was calculated. XLfit from IDBS was used. The dose response curve was curve fit to model number 205 (sigmoidal dose-response model).

[1] = systemic exposure, background statement; cited from earlier work
[2] = FIGS. 3 and 4, 1% by weight compound, 1% hydroxypropyl cellulose in DMSO/PEG 400 1:1, 4 hours

Work on Cn1c(Nc2ccc(I)cc2F)c(C(=O)NOC[C@@H](O)CO)c2cccnc21 [Compound 2.006] yielded a GI50 (A375 cells) of 0.081 µM, an IC50 (MEK1; Table 8, compounds of formula (II), tested by Example 2) of 0.371 µM and a GI50 (HCT116 cells) of 0.448 µM.
With O=C1CCCc2c1sc(Nc1ccc(I)cc1F)c2C(=O)NOCCO [Compound 4.029] the “suppression of p-ERK in human nevus sebaceous explants” value (p-ERK; [2]) was “suppression of p-ERK”, the IC50 (MAP2K1 (MEK1)) was no more than 0.15 µM and the IC50 (MEK1; Table 10, compounds of formula (IV), Example 2) was no more than 0.5 µM.
With Cn1c(Nc2ccc(I)cc2F)c(C(=O)NOCCO)c2cccnc21 [Compound 2.003] the “suppression of p-ERK in human nevus sebaceous explants” value (p-ERK; FIG. 5, 0.01% by weight compound, 1.5% hydroxypropyl cellulose in base formulation, 4 hours) was “suppression of p-ERK”, the “dose response in suppression of p-ERK in human nevus sebaceous explants” value (p-ERK; FIG. 6, 0.01%, 0.15% or 1.00% by weight compound, 4 hours) was “dose response” and the “suppression of p-ERK in human nevus sebaceous explants” value (p-ERK; [2]) was “suppression of p-ERK”.
For O=C(NOC[C@H](O)CO)c1ccc(F)c(F)c1Nc1ccc(I)cc1F [PD0325901], the “side effects of a clinically-tested MEK inhibitor” value [1] is listed as “neurological side effects associated with ataxia, confusion, and syncope”.
